Our source for the log(1/I50) values is ChEMBL document CHEMBL3227974, “Multivariate analysis and quantitative structure-activity relationships. Inhibition of dihydrofolate reductase and thymidylate synthetase by quinazolines” (J Med Chem, 1979).

Test [1] has as its target Thymidylate synthase (Mus musculus) (UniProt P07607). In words: Inhibition of thymidylate synthetase in mouse L1210S cells. In kind it is cell-based.
The target of test [2] is T1, Thymidylate synthase (Lactobacillus casei) (UniProt P00469).
T1 sequence (whole entry): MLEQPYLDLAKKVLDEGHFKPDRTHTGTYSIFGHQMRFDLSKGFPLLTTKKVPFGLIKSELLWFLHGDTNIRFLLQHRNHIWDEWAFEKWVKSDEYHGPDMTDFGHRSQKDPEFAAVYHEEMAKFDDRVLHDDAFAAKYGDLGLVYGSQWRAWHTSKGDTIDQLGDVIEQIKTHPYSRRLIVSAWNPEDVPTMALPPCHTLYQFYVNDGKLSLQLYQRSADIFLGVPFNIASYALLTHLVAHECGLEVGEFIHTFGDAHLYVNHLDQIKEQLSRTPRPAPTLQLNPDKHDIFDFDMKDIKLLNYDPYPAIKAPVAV
In words: Inhibition of thymidylate synthetase in Lactobacillus casei. The conditions noted are these: Lacticaseibacillus casei.

The target in test [3] is T2, Dihydrofolate reductase (Homo sapiens) (UniProt P00374).
T2 sequence (whole entry): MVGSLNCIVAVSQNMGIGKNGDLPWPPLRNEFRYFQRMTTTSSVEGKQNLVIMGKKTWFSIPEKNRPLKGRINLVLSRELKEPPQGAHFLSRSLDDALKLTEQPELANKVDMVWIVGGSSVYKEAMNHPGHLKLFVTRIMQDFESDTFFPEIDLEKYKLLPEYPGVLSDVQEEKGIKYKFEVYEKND
Description: Inhibition of dihydrofolate reductase in human acute lymphocytic leukemia cells

Test [4] deals with T3, Dihydrofolate reductase (Mus musculus) (UniProt P00375).
T3 sequence (whole entry): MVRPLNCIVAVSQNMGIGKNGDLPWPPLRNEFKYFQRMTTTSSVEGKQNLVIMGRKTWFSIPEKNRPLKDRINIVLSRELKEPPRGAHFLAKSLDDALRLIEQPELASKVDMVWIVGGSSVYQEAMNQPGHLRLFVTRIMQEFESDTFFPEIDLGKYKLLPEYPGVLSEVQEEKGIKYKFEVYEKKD
The experiment in a line: Inhibition of dihydrofolate reductase in mouse L1210R cells. The class given is cell-based.

Sequence of Thymidylate synthase (Mus musculus) (P07607 whole entry, looked up): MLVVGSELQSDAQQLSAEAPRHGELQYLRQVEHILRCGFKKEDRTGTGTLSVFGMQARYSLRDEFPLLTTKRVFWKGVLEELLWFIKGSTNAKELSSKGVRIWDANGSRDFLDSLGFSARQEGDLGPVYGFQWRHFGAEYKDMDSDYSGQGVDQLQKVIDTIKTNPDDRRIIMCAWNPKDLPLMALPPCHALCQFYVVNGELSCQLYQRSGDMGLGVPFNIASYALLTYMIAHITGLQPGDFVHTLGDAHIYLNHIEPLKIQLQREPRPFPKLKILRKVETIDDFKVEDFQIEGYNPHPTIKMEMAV

For the molecule `Nc1nc(O)c2cc(CCc3ccc(C(=O)NC(CCC(=O)O)C(=O)O)cc3)ccc2n1` (configuration not stated), the results for the log(1/I50) in test [1], in test [2] and in test [3] were 5.3, 5.12 and 6.31, respectively.
On to `Cc1c(CNc2cccc(Br)c2)ccc2nc(N)nc(N)c12`, for which the log(1/I50) in test [4] and in test [3] was 8.82 throughout.
Take `CCOC(=O)CCC(NC(=O)c1ccc(SCc2ccc3nc(N)nc(O)c3c2)cc1)C(=O)OCC` (configuration not stated): the values for the log(1/I50) in test [1], in test [2] and in test [3] were 7, 5.1 and 5.05, respectively.
In the case of `Nc1nc(N)c2c(Cl)c(CNc3ccc(C(=O)NC(CC(=O)O)C(=O)O)cc3)ccc2n1` (configuration not stated), the log(1/I50) turned out to be 9.21 in test [4] and 9.35 in test [3].
The like results for `Nc1nc(N)c2cc(CNc3ccc(C(=O)NC(C(=O)O)C(=O)O)cc3)ccc2n1` were, in that order, 8.81 and 9.1.
With `Nc1nc(O)c2cc(NCc3ccc(C(=O)O)cc3)ccc2n1`, the log(1/I50) in test [1] and in test [2] was 4 each time.
Take `CCOC(=O)CCC(NC(=O)c1ccc(CNc2ccc3nc(N)nc(O)c3c2C)cc1)C(=O)OCC` (configuration not stated): the figures for the log(1/I50) in test [1], in test [2] and in test [3] were 5.12, 4 and 5.1, respectively.
As for `Nc1nc(N)c2cc(CNc3ccc(Cl)c(C(=O)NC(CCC(=O)O)C(=O)O)c3)ccc2n1` (configuration not stated), the log(1/I50) in test [4] came to 8.03; in test [3], 6.7.
In turn, `Nc1nc(N)c2cc(NCc3ccc(C(=O)NC(CC(=O)O)C(=O)O)cc3)ccc2n1` (configuration not stated) registered a log(1/I50) in test [4] of 7.36.
On to `Nc1nc(N)c2cc(CNc3ccc(C(=O)NC(CC(=O)O)C(=O)O)cc3Cl)ccc2n1` (configuration not stated), for which the results for the log(1/I50) in test [4] and in test [3] were 9.13 and 8.82, respectively.
Regarding `CCOC(=O)c1ccc(NCc2ccc3nc(N)nc(O)c3c2)cc1`, the log(1/I50) in test [1] came out at 4; in test [2], 4; in test [3], 4.66.
`Nc1nc(N)c2cc(CNc3ccc(C(=O)NC(CC(=O)O)CC(=O)O)cc3)ccc2n1`: the log(1/I50) in test [4] stood at 8.14; in test [3] it was 8.25.
As for `Nc1nc(N)c2cc(CN(C=O)c3ccc(C(=O)O)cc3)ccc2n1`, the figures for the log(1/I50) in test [1] and in test [2] were 4 and 4.12, respectively.
As for `Nc1nc(O)c2cc(COc3ccc(C(=O)NC(CCC(=O)O)C(=O)O)cc3)ccc2n1` (configuration not stated), the log(1/I50) came to 5 in test [1] and 4 in test [2].
Regarding `CN(Cc1ccc2nc(N)nc(O)c2c1)c1ccc(C(=O)NC(CCC(=O)O)C(=O)O)cc1` (configuration not stated), the log(1/I50) worked out at 7.3 in test [1], 6.4 in test [2] and 6.22 in test [3].
As to `Nc1nc(N)c2cc(CNc3ccc(Cl)c(C(F)(F)F)c3)ccc2n1`, the log(1/I50) in test [3] stood at 8.4.
For the molecule `CCOC(=O)CCC(NC(=O)c1ccc(N(C)Cc2ccc3nc(N)nc(O)c3c2)cc1)C(=O)OCC` (configuration not stated), the log(1/I50) in test [1] stood at 5.12; in test [2], 4.12.
In the same order, the values of `CN(Cc1ccc2nc(N)nc(S)c2c1)c1ccc(C(=O)O)cc1` are 5.12 and 4.12.
As to `Nc1nc(O)c2cc(CN(C=O)c3ccc(C(=O)NC(CCC(=O)O)C(=O)O)cc3)ccc2n1` (configuration not stated), the figures for the log(1/I50) in test [1] and in test [2] were 7 and 5.52, respectively.
In the case of `Cc1c(CNc2ccc(Cl)c(C(=O)NC(CCC(=O)O)C(=O)O)c2)ccc2nc(N)nc(N)c12` (configuration not stated), the results for the log(1/I50) in test [4] and in test [3] were 8.68 and 8.52, respectively.
In the case of `CN(Cc1ccc2nc(N)nc(N)c2c1)c1ccc(C(=O)NC(CC(=O)O)C(=O)O)cc1` (configuration not stated), the log(1/I50) worked out at 8.66 in test [4] and 8.69 in test [3].
Consider `Nc1nc(N)c2cc(NCc3ccc(C(=O)NC(CCC(=O)O)C(=O)O)cc3)ccc2n1` (configuration not stated), for which the log(1/I50) stood at 6.6 in test [1], 5.3 in test [2] and 8 in test [3].
Regarding `Nc1nc(N)c2cc(CNc3ccc(Cl)c(Cl)c3)ccc2n1`, the log(1/I50) was found to be 8.05 in test [4] and 8.42 in test [3].
In the same order, the values of `Nc1nc(N)c2cc(CN(N=O)c3ccc(Cl)c(Cl)c3)ccc2n1` are 8 and 8.
`CCOC(=O)c1ccc(CNc2ccc3nc(N)nc(O)c3c2C)cc1`: the log(1/I50) in test [1] amounted to 4; in test [2], 4.05.
On to `Nc1nc(N)c2cc(CNc3cc(C(=O)NC(CC(=O)O)C(=O)O)ccc3Cl)ccc2n1` (configuration not stated), for which the values for the log(1/I50) in test [4] and in test [3] were 8.54 and 8.52, respectively.
`Cc1c(CNc2ccc(Cl)c(Cl)c2)ccc2nc(N)nc(N)c12`: the log(1/I50) in test [3] was 8.59.
Consider `COc1cc(NCc2ccc3nc(N)nc(N)c3c2C)cc(OC)c1OC`, for which the figures for the log(1/I50) in test [4] and in test [3] were 8.92 and 8.89, respectively.
In the case of `CN(Cc1ccc2nc(N)nc(O)c2c1)c1ccc(C(=O)O)cc1`, the log(1/I50) was 4.7 in test [1] and 4.12 in test [2].
As for `Nc1nc(N)c2cc(Oc3ccc(CNc4ccc(C(=O)NC(CCC(=O)O)C(=O)O)cc4)cc3)ccc2n1` (configuration not stated), the figures for the log(1/I50) in test [4] and in test [3] were 7.71 and 7.8, respectively.
As for `CCOC(=O)CCC(NC(=O)c1ccc(NCc2ccc3nc(N)nc(O)c3c2)cc1)C(=O)OCC` (configuration not stated), the log(1/I50) in test [1] is 6.6; in test [2], 4.15.
`Cc1c(CNc2ccc(C(=O)NC(CC(=O)O)CC(=O)O)cc2)ccc2nc(N)nc(N)c12`: the log(1/I50) in test [4] amounted to 9.15; in test [3], 8.17.
For `CN(Cc1ccc2nc(N)nc(N)c2c1)c1ccc(Cl)c(Cl)c1`, in test [3], the log(1/I50) came out at 8.3.
Take `Nc1nc(N)c2cc(CNc3cccc(Cl)c3)ccc2n1`: the log(1/I50) in test [4] and in test [3] was 8 in each case.
Turning to `Nc1nc(O)c2cc(CNc3ccc(C(=O)O)cc3)ccc2n1`, the log(1/I50) in test [1] and in test [2] was 4 each time.
In the case of `Nc1nc(S)c2cc(CNc3ccc(C(=O)O)cc3)ccc2n1`, the log(1/I50) in test [1] and in test [2] was 4 in each case.
On to `Cc1c(NCc2ccc(C(=O)NC(CCC(=O)O)C(=O)O)cc2)ccc2nc(N)nc(O)c12` (configuration not stated), for which the log(1/I50) amounted to 5.12 in test [1], 4.3 in test [2] and 6.12 in test [3].
With `CCOC(=O)CCC(NC(=O)c1ccc(NCc2ccc3nc(N)nc(N)c3c2)cc1)C(=O)OCC` (configuration not stated), the log(1/I50) in test [1] and in test [2] was 4 throughout.
Turning to `CCOC(=O)CCC(NC(=O)c1ccc(NCc2ccc3nc(N)nc(N)c3c2C)cc1)C(=O)OCC` (configuration not stated), the results for the log(1/I50) in test [1], in test [2] and in test [3] were 5.12, 4.3 and 8.49, respectively.
With `CCOC(=O)CCC(NC(=O)c1ccc(CNc2ccc3nc(N)nc(O)c3c2)cc1)C(=O)OCC` (configuration not stated), the log(1/I50) is 6 in test [1], 4.46 in test [2] and 5.65 in test [3].
In the case of `Cc1c(NCc2ccc(C(=O)O)cc2)ccc2nc(N)nc(O)c12`, the log(1/I50) in test [1] and in test [2] was 4.05 in each case.
For `Nc1nc(N)c2c(Cl)c(CNc3ccc(Cl)c(Cl)c3)ccc2n1`, the results for the log(1/I50) in test [4] and in test [3] were 8.7 and 8.96, respectively.
Consider `CCOC(=O)c1ccc(NCc2ccc3nc(N)nc(N)c3c2C)cc1`, for which the log(1/I50) in test [1] and in test [2] was 4 throughout.
For the molecule `Cc1c(CN(N=O)c2ccc(Cl)c(Cl)c2)ccc2nc(N)nc(N)c12`, the log(1/I50) in test [3] worked out at 8.
With `Nc1nc(N)c2cc(CNc3ccc(C(=O)NC(CCC(=O)O)C(=O)O)cc3)ccc2n1` (configuration not stated), the log(1/I50) turned out to be 5 in test [1] and 4 in test [2].
Regarding `Cc1c(NCc2ccc(C(=O)NC(CCC(=O)O)C(=O)O)cc2)ccc2nc(N)nc(N)c12` (configuration not stated), the log(1/I50) in test [1] was determined as 6.6; in test [2], 5.6; in test [3], 9.07.
Consider `Cc1c(CNc2ccc(C(=O)NC(CCC(=O)O)C(=O)O)cc2)ccc2nc(N)nc(O)c12` (configuration not stated), for which the log(1/I50) in test [1] came to 7; in test [2], 4.9.
Take `CCOC(=O)CCC(NC(=O)c1ccc(CNc2ccc3nc(N)nc(N)c3c2)cc1)C(=O)OCC` (configuration not stated): the log(1/I50) is 6 in test [1], 5 in test [2] and 7.66 in test [3].
Turning to `Nc1nc(N)c2cc(CN(C=O)c3ccc(C(=O)NC(CCC(=O)O)C(=O)O)cc3)ccc2n1` (configuration not stated), the log(1/I50) in test [3] was found to be 8.22.
Same read-out and setting: next, `CC(=O)N(Cc1ccc2nc(N)nc(N)c2c1)c1ccc(Cl)c(Cl)c1`: 7.3.
With `Nc1nc(=O)c2cc(NCc3ccc(C(=O)NC(CCC(=O)O)C(=O)O)cc3)ccc2[nH]1` (configuration not stated), the log(1/I50) in test [1] was 6.3; in test [2], 5; in test [3] it was 5.78.
Turning to `Nc1nc(=O)c2cc(CSc3ccc(C(=O)NC(CCC(=O)O)C(=O)O)cc3)ccc2[nH]1` (configuration not stated), the log(1/I50) amounted to 6 in test [1], 5.6 in test [2] and 4.9 in test [3].
Molecule `COc1cc(NCc2ccc3nc(N)nc(N)c3c2)cc(OC)c1OC` returned a log(1/I50) in test [3] of 8.22.
`Cc1c(CNc2ccc(C(=O)NC(CCC(=O)O)C(=O)O)cc2)ccc2nc(N)nc(N)c12` (configuration not stated) displayed a log(1/I50) in test [3] of 8.78.
`CCOC(=O)c1ccc(CNc2ccc3nc(N)nc(O)c3c2)cc1`: the figures for the log(1/I50) in test [1], in test [2] and in test [3] were 4, 4.3 and 5.49, respectively.
As to `CCOC(=O)c1ccc(NCc2ccc3nc(N)nc(N)c3c2)cc1`, the log(1/I50) in test [1] and in test [2] was 4 in each case.
